Source: patent publication US10000507B2, “Furo- and thieno-pyridine carboxamide compounds useful as pim kinase inhibitors” (Incyte Corporation, priority 2013, dated 2018)

How the values were obtained:
Format in all cases: biochemical
Pim-3 = Pim-3 (Homo sapiens (Human), UniProt Q86V86); assay: Pim-3 kinase assay; conditions: 1 mM ATP, biotin-labeled BAD peptide substrate; read-out: Pim3 IC50
Method in brief: (§1)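 Biotin-BAD peptide ([…]) phosphorylated with 1 mM ATP by 2.5 pM Pim-1 or 1.25 pM Pim-3, 1 h at 25 °C in Tris pH 7.5, MgCl2, DTT buffer. EDTA stop with anti-phospho-BAD (Ser112) antibody and AlphaScreen streptavidin donor/Protein-A acceptor beads; signal read after 1 h dark incubation.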

Pim-1 = Pim-1 (Homo sapiens (Human), UniProt P11309); assay: Pim-1 kinase assay; conditions: 1 mM ATP, biotin-labeled BAD peptide substrate; read-out: Pim1 IC50
Chain of Pim-1 (P11309 whole entry): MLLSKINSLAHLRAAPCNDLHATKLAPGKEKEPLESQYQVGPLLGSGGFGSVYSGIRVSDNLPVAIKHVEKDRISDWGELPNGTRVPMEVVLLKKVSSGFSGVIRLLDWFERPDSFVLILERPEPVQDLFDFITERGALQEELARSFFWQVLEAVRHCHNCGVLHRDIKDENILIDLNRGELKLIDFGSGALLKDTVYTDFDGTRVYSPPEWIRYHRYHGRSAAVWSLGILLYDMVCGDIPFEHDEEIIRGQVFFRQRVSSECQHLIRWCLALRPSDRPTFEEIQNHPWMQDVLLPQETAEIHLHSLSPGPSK
Method in brief: as §1

Pim-2 = Pim-2 (Homo sapiens (Human), UniProt Q9P1W9); assay: Pim-2 kinase assay; conditions: 1 mM ATP, fluorescein-labeled CREBtide peptide substrate; read-out: Pim2 IC50
Chain of Pim-2 (Q9P1W9 whole entry): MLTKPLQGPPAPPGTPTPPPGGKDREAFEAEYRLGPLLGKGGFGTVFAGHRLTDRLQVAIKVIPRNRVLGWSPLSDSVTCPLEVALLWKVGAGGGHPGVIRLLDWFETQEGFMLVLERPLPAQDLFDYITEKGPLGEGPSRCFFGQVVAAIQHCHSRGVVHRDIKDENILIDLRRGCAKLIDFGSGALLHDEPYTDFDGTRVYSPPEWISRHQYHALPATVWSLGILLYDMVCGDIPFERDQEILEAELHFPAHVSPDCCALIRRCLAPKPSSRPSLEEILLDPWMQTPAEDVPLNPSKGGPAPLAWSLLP
Method in brief: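 TR-FRET assay: 1 nM Pim-2 with 0.05 μM fluorescein-CREBtide and 1 mM ATP in Tris pH 7.5, 5 mM MgCl2, 5 mM DTT, 2 h at 25 °C. EDTA stop, then Tb-anti-pCREB Ser133 antibody for 30 min before reading.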

SMILES	IC50 (Pim-3)	IC50 (Pim-1)	IC50 (Pim-2)
CCCc1cnc2c(C(=O)Nc3cnccc3N3C[C@@H](N)[C@H](O)[C@@H](C)C3)c(N)oc2c1 [Example 67, 2-Amino-N-{4-[(3R,4R,5S)-3-amino-4-hydroxy-5-methylpiperidin-1-yl]pyridin-3-yl}-6-propylfuro[3,2-b]pyridine-3-carboxamide]	≤ 10 nM	≤ 10 nM	≤ 10 nM
CC(C)c1cnc2c(C(=O)Nc3cnccc3N3C[C@@H](N)[C@H](O)[C@@H](C)C3)c(N)sc2c1 [Example 139, 2-Amino-N-(4-((3R,4R,5S)-3-amino-4-hydroxy-5-methylpiperidin-1-yl)pyridin-3-yl)-6-isopropylthieno[3,2-b]pyridine-3-carboxamide]	≤ 10 nM	≤ 10 nM	≤ 10 nM
Nc1oc2cc(C3CCOC3)cnc2c1C(=O)Nc1cnccc1N1C[C@@H](N)C[C@@H](C(F)(F)F)C1 (stereo partly drawn) [Example 123, 2-Amino-N-{4-[(3S,5R)-3-amino-5-(trifluoromethyl)piperidin-1-yl]pyridin-3-yl}-6-(tetrahydrofuran-3-yl)furo[3,2-b]pyridine-3-carboxamide]	≤ 10 nM	≤ 10 nM	≤ 10 nM
CC(C)c1cnc2c(C(=O)Nc3cnccc3[C@@H]3C[C@H](C)C[C@H](N)C3)c(N)oc2c1 [Example 130, 2-Amino-N-{4-[(1R,3S,5S)-3-amino-5-methylcyclohexyl]pyridin-3-yl}-6-isopropylfuro[3,2-b]pyridine-3-carboxamide]	≤ 10 nM	≤ 10 nM	≤ 10 nM
Nc1oc2cc(CN3CC(O)C3)cnc2c1C(=O)Nc1cnccc1N1C[C@@H](N)C[C@@H](C(F)(F)F)C1 [Example 101, 2-Amino-N-{4-[(3S,5R)-3-amino-5-(trifluoromethyl)piperidin-1-yl]pyridin-3-yl}-6-[(3-hydroxyazetidin-1-yl)methyl]furo[3,2-b]pyridine-3-carboxamide]	≤ 10 nM	≤ 10 nM	10 to 100 nM
Nc1oc2cc(F)cnc2c1C(=O)Nc1cnccc1N1CCC[C@H](N)C1 [Example 52, 2-amino-N-{4-[(3S)-3-aminopiperidin-1-yl]pyridin-3-yl}-6-fluoro-furo[3,2-b]pyridine-3-carboxamide]	≤ 10 nM	≤ 10 nM	100 to 1000 nM
Nc1sc2cc(OC3CC3)cnc2c1C(=O)Nc1cnccc1N1CCC[C@H](N)C1 [Example 14, 2-Amino-N-{4-[(3S)-3-aminopiperidin-1-yl]pyridin-3-yl}-6-cyclopropoxythieno[3,2-b]pyridine-3-carboxamide]	≤ 10 nM	≤ 10 nM	> 2000 nM
CC(C)Oc1ccnc2c(C(=O)Nc3cnccc3N3CCC[C@H](N)C3)c(N)sc12 [Example 18, 2-Amino-N-{4-[(3S)-3-aminopiperidin-1-yl]pyridin-3-yl}-7-isopropoxythieno[3,2-b]pyridine-3-carboxamide]	≤ 10 nM	> 40 nM	> 1000 nM
Nc1sc2cccnc2c1C(=O)Nc1cnccc1N1CCCNCC1 [Example 8, 2-Amino-N-[4-(1,4-diazepan-1-yl)pyridin-3-yl]thieno[3,2-b]pyridine-3-carboxamide]	> 40 nM	≤ 10 nM	> 2000 nM
CCc1cnc2c(C(=O)Nc3cnccc3N3C[C@H](C)C[C@H](N)C3)c(N)oc2c1 [Example 117, 2-Amino-N-{4-[(3S,5R)-3-amino-5-methylpiperidin-1-yl]pyridin-3-yl}-6-ethylfuro[3,2-b]pyridine-3-carboxamide]	≤ 10 nM	≤ 10 nM	≤ 10 nM
COC1CCN(Cc2cnc3c(C(=O)Nc4cnccc4N4C[C@@H](N)C[C@@H](C(F)(F)F)C4)c(N)oc3c2)C1 (stereo partly drawn) [Example 103, 2-Amino-N-{4-[(3S,5R)-3-amino-5-(trifluoromethyl)piperidin-1-yl]pyridin-3-yl}-6-[(3-methoxypyrrolidin-1-yl)methyl]furo[3,2-b]pyridine-3-carboxamide]	≤ 10 nM	≤ 10 nM	10 to 100 nM
CCc1cnc2c(C(=O)Nc3cnccc3N3C[C@@H](N)C[C@@H](C(F)(F)F)C3)c(N)oc2c1 [Example 118, 2-Amino-N-{4-[(3S,5R)-3-amino-5-(trifluoromethyl)piperidin-1-yl]pyridin-3-yl}-6-ethylfuro[3,2-b]pyridine-3-carboxamide]	≤ 10 nM	≤ 10 nM	≤ 10 nM
C[C@@H]1C[C@H](N)CN(c2ccncc2NC(=O)c2c(N)oc3cc(Cl)cnc23)C1 [Example 72, 2-Amino-N-{4-[(3S,5R)-3-amino-5-methyl-piperidin-1-yl]pyridin-3-yl}-6-chlorofuro[3,2-b]pyridine-3-carboxamide]	≤ 10 nM	≤ 10 nM	10 to 100 nM
CC(C)c1cnc2c(C(=O)Nc3cnccc3N3C[C@@H](N)[C@H](O)[C@@H](C4CC4)C3)c(N)oc2c1 [Example 89, 2-Amino-N-{4-[(3R,4R,5S)-3-amino-5-cyclopropyl-4-hydroxypiperidin-1-yl]pyridin-3-yl}-6-isopropylfuro[3,2-b]pyridine-3-carboxamide]	≤ 10 nM	≤ 10 nM	≤ 10 nM
Cc1ccc2sc(N)c(C(=O)Nc3cnccc3N3CCC[C@H](N)C3)c2n1 (stereo in doubt) [Example 42, 2-Amino-N-[4-(3-aminopiperidin-1-yl)pyridin-3-yl]-5-methylthieno[3,2-b]pyridine-3-carboxamide]	> 40 nM	> 40 nM	> 2000 nM
CC(C)c1cnc2c(C(=O)Nc3cnccc3N3C[C@@H](N)[C@H](O)[C@@H](C)C3)c(N)oc2c1 [Example 75, 2-Amino-N-{4-[(3R,4R,5S)-3-amino-4-hydroxy-5-methylpiperidin-1-yl]pyridin-3-yl}-6-isopropylfuro[3,2-b]pyridine-3-carboxamide]	≤ 10 nM	≤ 10 nM	10 to 100 nM
Nc1oc2cccnc2c1C(=O)Nc1cnccc1N1CCC[C@H](N)C1 [Example 45, 2-Amino-N-{4-[(3S)-3-aminopiperidin-1-yl]pyridin-3-yl}furo[3,2-b]pyridine-3-carboxamide]	≤ 10 nM	≤ 10 nM	100 to 1000 nM
Nc1oc2cc(C3CCC3)cnc2c1C(=O)Nc1cnccc1N1C[C@@H](N)C[C@@H](C(F)(F)F)C1 [Example 98, 2-Amino-N-{4-[(3S,5R)-3-amino-5-(trifluoromethyl)piperidin-1-yl]pyridin-3-yl}-6-cyclobutylfuro[3,2-b]pyridine-3-carboxamide]	≤ 10 nM	≤ 10 nM	≤ 10 nM
Nc1sc2cccnc2c1C(=O)Nc1cnccc1N1CCCC(N)CC1 (stereo not drawn) [Example 9, 2-Amino-N-[4-(4-aminoazepan-1-yl)pyridin-3-yl]thieno[3,2-b]pyridine-3-carboxamide]	> 40 nM	10 to 100 nM	> 2000 nM
Nc1oc2cc(CN3CC[C@@H](F)C3)cnc2c1C(=O)Nc1cnccc1N1C[C@@H](N)C[C@@H](C(F)(F)F)C1 [Example 105, 2-Amino-N-{4-[(3S,5R)-3-amino-5-(trifluoromethyl)piperidin-1-yl]pyridin-3-yl}-6-{[(3R)-3-fluoropyrrolidin-1-yl]methyl}furo[3,2-b]pyridine-3-carboxamide]	≤ 10 nM	≤ 10 nM	10 to 100 nM
